Data set [1] addresses T1, BuChE (Equus caballus, UniProt P81908). The experiment in a line: time-dependent Ellman assay, kobs analysis. More on the design: gene BCHE. The settings on record: read-out: kc; equilibrium constant of reversible step before carbamylation; covalent.
A further data set addresses T2, AChE (Electrophorus electricus, UniProt O42275).
T2 construct: native enzyme, Type V-S lyophilized powder, Sigma-Aldrich
The experiment in a line: Ellman colorimetric assay. Format: biochemical. The settings on record: read-out: IC50 ± SD / AChE ^a.

Data set [2] in a line: in vitro. The arrangement: MTT cytotoxicity, absorbance at 570 nm, HT-22 mouse hippocampal neuronal cells. Conditions: mouse, ht-22; read-out: IC50 ± SD / HT-22 ^a. Here is the method: The cell lines present in this study were purchased from the China Center for Type Collection (CCTCC, China). For cytotoxicity assay, HT-22, BV2, SH-SY5Y, HepG2, and LO2 cells were incubated in 96-well plates at the density of 5 × 10³ per well. After incubation for 12 h at 37°C, the tested compounds with the required concentrations were added to the corresponding wells and continuously incubated for 24 h at 37°C. Then, the prepared MTT (3-[4,5-dimethyl-2-thiazolyl]-2,5-diphenyl-2H-tetrazolium bromide) solution was added to each well and co-incubated for another 4 h at 37°C. Then, the supernatant was removed, and 100 μl DMSO was added to each well. The OD value of each well was detected at 570 nm using a microplate reader (Bio-Rad Laboratories, CA, United States). The IC50 values were calculated using IBM SPSS Statistics 25.0 software. All experiments were performed in triplicate, and the results were shown as the mean ± SD. In order to explore the applicability of the synthesized CTDs in neurological diseases, the neuronal cytotoxicity of the synthesized compounds was evaluated on mouse hippocampal neuronal cell line HT-22. […] In view of these CTDs endowed strong inhibition efficacy on BuChE, we preliminarily evaluated their safety range by comparing their IC50 values on cytotoxicity and BuChE inhibitory activity. […] Therefore, the series of compounds with dibenzyl groups, especially compounds bearing ring carbon alkyl chains (2f-2h) and tertiary amine residues (2j-2u) with little cytotoxicity on HT-22, can be considered as potential lead building blocks for further structure optimization to develop novel effective agents against neurological diseases.

In data set [3] the target is T1, BuChE. The experiment in a line: Ellman colorimetric assay. The format is biochemical. More on the design: gene BCHE; native enzyme from equine serum, purchased from Sigma-Aldrich. The settings on record: read-out: IC50 ± SD / BuChE ^a. A general note: Ellman's reagent forms a yellow product with free thiols.
The nature of data set [4]: in vitro. The arrangement: species or system SH-SY5Y, HepG2; MTT cytotoxicity, absorbance at 570 nm. The settings on record: human, lo2 cells; read-out: ^a IC50 ± SD (μM) / LO2. Here is the method:
(§1) The cell lines present in this study were purchased from the China Center for Type Collection (CCTCC, China). For cytotoxicity assay, HT-22, BV2, SH-SY5Y, HepG2, and LO2 cells were incubated in 96-well plates at the density of 5 × 10³ per well. After incubation for 12 h at 37°C, the tested compounds with the required concentrations were added to the corresponding wells and continuously incubated for 24 h at 37°C. Then, the prepared MTT (3-[4,5-dimethyl-2-thiazolyl]-2,5-diphenyl-2H-tetrazolium bromide) solution was added to each well and co-incubated for another 4 h at 37°C. Then, the supernatant was removed, and 100 μl DMSO was added to each well. The OD value of each well was detected at 570 nm using a microplate reader (Bio-Rad Laboratories, CA, United States). The IC50 values were calculated using IBM SPSS Statistics 25.0 software. All experiments were performed in triplicate, and the results were shown as the mean ± SD. In order to further evaluate the applicability of the compounds with dibenzyl groups for neurological diseases, we also tested the cytotoxicity of the selected compounds (2f, 2h, 2j, 2m, 2o-2r, 2t, and 2u) bearing little toxicity on HT-22 cells, microglia cell line BV2, and human neuroblastoma cell line SH-SY5Y, which are widely used in the study of neurological diseases. […] In view of some carbamate-based ChE inhibitors reported to be hepatotoxic, we further performed the preliminary evaluation of the hepatotoxicity of the selected compounds on human normal liver cell line LO2 and human hepatocellular carcinoma cell line HepG2.

Data set [5] can be described thus: in vitro. The arrangement: species or system LO2, HepG2; MTT cytotoxicity, absorbance at 570 nm. Conditions: human, sh-sy5y; read-out: ^a IC50 ± SD (μM) / SH-SY5Y. Here is the method:
as §1

Data set [6] in a line: in vitro. The arrangement: species or system SH-SY5Y, LO2; MTT cytotoxicity, absorbance at 570 nm. The settings on record: human, read-out: ^a IC50 ± SD (μM) / HepG2. Here is the method: as §1

The values below come from publication PMC9742383, “From tryptamine to the discovery of efficient multi-target directed ligands against cholinesterase-associated neurodegenerative disorders” (Frontiers in Pharmacology, 2022).

Like-named read-outs stand apart in the source and are kept apart here.

T1 sequence (P81908 whole entry): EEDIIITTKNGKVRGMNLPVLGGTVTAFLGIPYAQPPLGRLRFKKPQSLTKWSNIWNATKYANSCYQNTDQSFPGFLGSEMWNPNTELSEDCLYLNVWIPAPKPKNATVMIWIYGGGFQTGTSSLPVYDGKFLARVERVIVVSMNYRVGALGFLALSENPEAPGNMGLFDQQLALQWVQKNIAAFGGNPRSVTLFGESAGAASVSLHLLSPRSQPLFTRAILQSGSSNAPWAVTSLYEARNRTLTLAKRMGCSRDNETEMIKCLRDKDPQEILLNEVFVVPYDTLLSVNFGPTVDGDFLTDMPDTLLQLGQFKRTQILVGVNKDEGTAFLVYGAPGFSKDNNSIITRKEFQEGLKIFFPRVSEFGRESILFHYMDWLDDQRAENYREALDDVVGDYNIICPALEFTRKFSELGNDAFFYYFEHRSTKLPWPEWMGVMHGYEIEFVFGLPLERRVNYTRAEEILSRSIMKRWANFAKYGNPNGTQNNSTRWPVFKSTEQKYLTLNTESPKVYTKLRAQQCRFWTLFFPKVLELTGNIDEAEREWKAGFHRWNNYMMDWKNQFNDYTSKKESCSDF
T2 sequence (O42275 24-633): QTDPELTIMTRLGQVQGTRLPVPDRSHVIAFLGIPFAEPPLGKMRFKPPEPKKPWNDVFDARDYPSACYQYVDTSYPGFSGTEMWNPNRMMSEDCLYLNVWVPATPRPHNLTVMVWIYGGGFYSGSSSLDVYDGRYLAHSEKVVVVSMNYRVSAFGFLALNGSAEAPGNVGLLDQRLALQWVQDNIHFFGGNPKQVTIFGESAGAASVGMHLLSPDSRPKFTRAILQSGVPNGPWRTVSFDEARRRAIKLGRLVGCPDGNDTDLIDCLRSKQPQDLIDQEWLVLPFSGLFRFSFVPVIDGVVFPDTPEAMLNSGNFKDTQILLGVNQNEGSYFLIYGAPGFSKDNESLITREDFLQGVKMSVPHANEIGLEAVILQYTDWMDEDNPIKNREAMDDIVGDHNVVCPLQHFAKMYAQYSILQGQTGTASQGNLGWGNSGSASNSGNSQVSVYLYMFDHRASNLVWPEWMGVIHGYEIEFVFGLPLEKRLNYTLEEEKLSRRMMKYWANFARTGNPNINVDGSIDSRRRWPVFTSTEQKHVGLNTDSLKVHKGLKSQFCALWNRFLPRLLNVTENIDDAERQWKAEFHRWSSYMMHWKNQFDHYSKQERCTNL

For the molecule `CCCCCNC(=O)Oc1ccc2[nH]cc(CCN(Cc3ccccc3)Cc3ccccc3)c2c1` [2c, 3-(2-(dibenzylamino)ethyl)-1H-indol-5-yl pentylcarbamate], the KI (inactivation) on BuChE [1] is 0.00705 µM. For the same molecule, the IC50 is > 100 µM on AChE and 0.0021 ± 0.00014 µM on BuChE [3]. The CC50 at 24 h in the data set “in vitro [2]” amounted to 37.47 ± 0.23 µM.

Regarding `CCCCCCCNC(=O)Oc1ccc2[nH]cc(CCN(Cc3ccccc3)Cc3ccccc3)c2c1` [2e, 3-(2-(dibenzylamino)ethyl)-1H-indol-5-yl heptylcarbamate], on BuChE [1], the KI (inactivation) came to 0.00255 µM. Besides, the IC50 is > 100 µM on AChE and 0.00142 ± 4e-06 µM on BuChE [3]. Also, the CC50 at 24 h in “in vitro [2]” is 35.6 ± 2.45 µM.

For the molecule `O=C(NC1CC1)Oc1ccc2[nH]cc(CCN(Cc3ccccc3)Cc3ccccc3)c2c1` [2f, 3-(2-(dibenzylamino)ethyl)-1H-indol-5-yl cyclopropylcarbamate], the KI (inactivation) on BuChE [1] was found to be 0.00159 µM. Further, the IC50 on AChE is > 100 µM; on BuChE [3], 0.00875 ± 0.00023 µM. Moreover, the CC50 at 24 h in “in vitro [2]” is 60.2 ± 3.85 µM.

`O=C(NC1CCCCC1)Oc1ccc2[nH]cc(CCN(Cc3ccccc3)Cc3ccccc3)c2c1` [2h, 3-(2-(dibenzylamino)ethyl)-1H-indol-5-yl cyclohexylcarbamate]: the IC50 on AChE was > 100 µM; on BuChE [3], 0.016 ± 0.00032 µM. In addition, the CC50 at 24 h was > 100 µM in the data set “in vitro [4]”, 74.2 ± 1.5 µM in “in vitro [2]” and > 100 µM in “in vitro [5]”.

For the molecule `CN(C)C(=O)Oc1ccc2[nH]cc(CCN(Cc3ccccc3)Cc3ccccc3)c2c1` [2j, 3-(2-(dibenzylamino)ethyl)-1H-indol-5-yl dimethylcarbamate], the figures for the IC50 on AChE and at BuChE [3] were > 100 µM and 0.00677 ± 0.00027 µM, respectively. Further, the CC50 at 24 h in the data set “in vitro [6]” (hepg2), in “in vitro [4]”, in the data set “in vitro [2]” and in the data set “in vitro [5]” was > 100 µM throughout.

Consider `CCCCN(CCCC)C(=O)Oc1ccc2[nH]cc(CCN(Cc3ccccc3)Cc3ccccc3)c2c1` [2m, 3-(2-(dibenzylamino)ethyl)-1H-indol-5-yl dibutylcarbamate], for which the IC50 at AChE is > 100 µM; at BuChE [3], 0.0138 ± 0.00067 µM. Also, the CC50 at 24 h in the data set “in vitro [6]” (hepg2) is > 100 µM; in “in vitro [4]”, > 100 µM; in “in vitro [2]”, 65.28 ± 0.09 µM; in “in vitro [5]” it was > 100 µM.

In the case of `CON(C)C(=O)Oc1ccc2[nH]cc(CCN(Cc3ccccc3)Cc3ccccc3)c2c1` [2o, 3-(2-(dibenzylamino)ethyl)-1H-indol-5-yl methoxy(methyl)carbamate], the values for the IC50 on AChE and at BuChE [3] were 2.93 µM and 0.00865 ± 0.00034 µM, respectively. Also, the CC50 at 24 h in the data set “in vitro [2]” is 72.1 ± 2.23 µM; in the data set “in vitro [5]” it was > 100 µM.

On to `CN(C(=O)Oc1ccc2[nH]cc(CCN(Cc3ccccc3)Cc3ccccc3)c2c1)c1ccccc1` [2p, 3-(2-(dibenzylamino)ethyl)-1H-indol-5-yl methyl(phenyl)carbamate], for which the IC50 at AChE is > 100 µM; on BuChE [3], 0.0189 ± 0.00134 µM. Also, the CC50 at 24 h in the data set “in vitro [6]” (hepg2 cells), in “in vitro [4]”, in “in vitro [2]” and in “in vitro [5]” was > 100 µM each time.

Consider `O=C(Oc1ccc2[nH]cc(CCN(Cc3ccccc3)Cc3ccccc3)c2c1)N1CCC1` [2q, 3-(2-(dibenzylamino)ethyl)-1H-indol-5-yl azetidine-1-carboxylate], for which the IC50 at AChE came out at 0.742 ± 0.00987 µM; at BuChE [3], 0.00165 ± 3e-05 µM. Also, the CC50 at 24 h in the data set “in vitro [6]” (hepg2 cells) is > 100 µM; in “in vitro [2]”, 86.5 ± 1.82 µM.
